In US20230052740A1, “MODULATORS OF CIRCADIAN RHYTHMS AND USES THEREOF” (The Regents of the University of California, priority 2019, published 2023):

Target: T1, 5HT2c (Homo sapiens, UniProt P28335)
T1 construct: Tango fusion elements (printed only as 'PRESTO-Tango receptor DNAs'); expressed in transfected cells; host or cells: HTLA cells
T1 sequence (P28335 33-458): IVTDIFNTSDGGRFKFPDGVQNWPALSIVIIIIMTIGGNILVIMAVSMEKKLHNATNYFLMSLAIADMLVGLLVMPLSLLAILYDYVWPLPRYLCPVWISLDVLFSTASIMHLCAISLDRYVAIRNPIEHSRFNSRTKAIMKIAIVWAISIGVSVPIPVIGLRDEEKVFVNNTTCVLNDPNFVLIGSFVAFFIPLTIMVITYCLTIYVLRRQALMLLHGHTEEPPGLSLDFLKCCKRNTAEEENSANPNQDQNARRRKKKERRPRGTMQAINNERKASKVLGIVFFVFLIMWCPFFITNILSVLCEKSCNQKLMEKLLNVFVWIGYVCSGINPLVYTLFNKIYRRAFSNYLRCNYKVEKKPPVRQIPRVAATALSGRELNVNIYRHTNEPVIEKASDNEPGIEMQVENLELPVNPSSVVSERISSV
Experiment: PRESTO-Tango GPCR-ome counter-screen, agonist mode
Type: cell-based
Conditions: arrestin recruitment Tango, in words
Protocol: Screening of compounds in the PRESTO-Tango GPCR-ome was accomplished as previously described (Kroeze, supra). with several modifications. First, HTLA cells were plated in DMEM with 10% FBS and 10 U/mL penicillin-streptomycin. Next, the cells were transfected using an in-plate PEI method (Longo, P. A. et al., Methods Enzymol 529, 227-240, 2013). PRESTO-Tango receptor DNAs were resuspended in OptiMEM and hybridized with PEI prior to dilution and distribution to 384-well plates and subsequent addition to cells. After overnight incubation, drugs were added to cells without replacement of the medium. The remaining steps of the PRESTO-Tango protocol were followed as previously described.

COc1ccc(Br)c(CNc2cccnc2)c1 [ZINC128734226] was tested, and the “off-target agonist activity on 5HT2c” value was “did have some activity on 5HT2c”.
